Experimental data: patent US8084621B2, “3-Pyrrolo[b]cyclohexylene-2-dihydroindolinone derivatives and uses thereof” (Jiangsu Simcere Pharmaceutical R&D Co. Ltd., priority 2006, dated 2011)

What follows are compounds tested against T1, PDGFR-β (Homo sapiens, UniProt P09619) (assay: Protein kinase activity by ELISA in vitro, PDGFR-β). Conditions: concentration of 10^−7 mol/L; read-out: kinase inhibition ratio, PDGFR-β.
T1 construct: purchased Cell Signaling Technology CO
Type: biochemical
Excerpt: An ELISA (Enzyme-Linked Immunosorbent Sandwich Assay) procedure may be used to detect and measure the level of protein tyrosine kinase activity. Tyrosine kinases such as VEGFR-2, PDGFR-β and c-Kit etc. catalyze the phosphorylation reaction of ATP and biotin-labeled peptide substrate, which will be ceased when the kinase activity is inhibited. According to the principle of ELISA, a monoclonal antibody can react with phosphorylated substrate specially, so biotin-labeled substrate is binded to streptavidin-coated ELISA plate, and then binded to a HRP-labeled goat anti-mouse antibody. Finally TMB is added for a color reaction and the value of A450-A630 is read by ELISA plate reader. The OD value can reflect the inhibitory activity of the VEGFR-2, PDGFR-β, c-Kit tyrosine kinases etc. treated with the test compounds at the different concentrations. So, the assay may be used to measure the inhibition ratio of the compounds for the tyrosine kinase activity. Similar assays can be designed along the same lines for any PK using techniques well known in the art. Tyrosine kinases such as VEGFR-2, PDGFR-β and c-Kit etc. catalyze the phosphorylation reaction of ATP and biotin-labeled peptide substrate, which will be ceased when the kinase activity is inhibited. According to the principle of ELISA, a monoclonal antibody can react with phosphorylated substrate specially, so biotin-labeled substrate is binded to streptavidin-coated ELISA plate, and then binded to a HRP-labeled goat anti-mouse antibody. Finally TMB is added for a color reaction and the value of A450-A630 is read by ELISA plate reader. The OD value can reflect the inhibitory activity of the VEGFR-2, PDGFR-β c-Kit tyrosine kinases treated with the test compounds at the different concentrations. So, the assay may be used to measure the inhibition ratio of the compounds for the tyrosine kinase activity. Similar assays can be designed along the same lines for any PK using techniques well known in the art. VEGF Receptor 2, PDGF Receptor-beta and c-kit kinase assay kit (include kinase, 1.25M DTT, substrate peptide, 10 mM ATP, P-[…] Mouse antibody, 4×HTScan tyrosine kinase buffer), Cell Signaling Technology CO.; HRP labeled goat anti mouse IgG, Protein Tech CO.; TMB, Pierce CO.; Streptavidin Microtitration Plate, Greiner Bio-one CO.; Infinite M200 Reader, Tecan CO. 1.2.1 Immediately transfer enzyme from -80° C. to ice. Allow enzyme to thaw on ice then at 4° C. and centrifugate transiently to the bottom of centrifuge tube, then lay back on ice quickly 1.2.2 Add 10 μl of DTT (1.25 M) to 2.5 ml of 4×HTScan tyrosine kinase buffer (240 mM HEPES pH 7.5, 20 mM MgCl2, 20 mM MnCl2, 12 μM Na3VO4). Transfer 0.6 ml of DTT/Kinase buffer to each enzyme tube to make 4× reaction Cocktail. Incubate 12.5 μl of the 4× reaction cocktail with 12.5 μl/well prediluted compound of interest for 5 minutes at room temperature, and set blank control, free-enzyme control, negative control and positive control. 1.2.3 Add 10 μl 10 mM ATP to 1.25 ml 6 μM substrate peptide. Dilute the mixture with dH20 to 2.5 ml to make 2×ATP/substrate cocktail. Add 25 μl of 2×ATP/substrate cocktail to 25 μl/well preincubated reaction cocktail/compound. Incubate reaction plate at room temperature for 30 minutes. 1.2.4 Add 50 μl/well stop Buffer (50 mM EDTA, pH 8) to stop the reaction. Transfer 25 μl of each reaction and 75 μl dH2O/well to a 96-well streptavidin coated plate and incubate at room temperature for 60 minutes. Wash three times with 200 μl/well PBS/T(1×PBS, 0.05% Tween-20). 1.2.5 Dilute primary antibody, Phospho-Tyrosine mAb (P-[…]), 1:500 in PBS/T with 1% BSA. Add 100 μl/well primary antibody. Incubate at room temperature for 60 minutes. Wash three times with 200 μl/well PBS/T(1×PBS, 0.05% Tween-20). 1.2.6 Prepare appropriate dilution of HRP labeled secondary antibody, 1:500 in PBS/T with 1% BSA. Add 100 μl/well secondary antibody solution. Incubate at room temperature for 30 minutes. […]

T1 sequence (P09619 33-1106): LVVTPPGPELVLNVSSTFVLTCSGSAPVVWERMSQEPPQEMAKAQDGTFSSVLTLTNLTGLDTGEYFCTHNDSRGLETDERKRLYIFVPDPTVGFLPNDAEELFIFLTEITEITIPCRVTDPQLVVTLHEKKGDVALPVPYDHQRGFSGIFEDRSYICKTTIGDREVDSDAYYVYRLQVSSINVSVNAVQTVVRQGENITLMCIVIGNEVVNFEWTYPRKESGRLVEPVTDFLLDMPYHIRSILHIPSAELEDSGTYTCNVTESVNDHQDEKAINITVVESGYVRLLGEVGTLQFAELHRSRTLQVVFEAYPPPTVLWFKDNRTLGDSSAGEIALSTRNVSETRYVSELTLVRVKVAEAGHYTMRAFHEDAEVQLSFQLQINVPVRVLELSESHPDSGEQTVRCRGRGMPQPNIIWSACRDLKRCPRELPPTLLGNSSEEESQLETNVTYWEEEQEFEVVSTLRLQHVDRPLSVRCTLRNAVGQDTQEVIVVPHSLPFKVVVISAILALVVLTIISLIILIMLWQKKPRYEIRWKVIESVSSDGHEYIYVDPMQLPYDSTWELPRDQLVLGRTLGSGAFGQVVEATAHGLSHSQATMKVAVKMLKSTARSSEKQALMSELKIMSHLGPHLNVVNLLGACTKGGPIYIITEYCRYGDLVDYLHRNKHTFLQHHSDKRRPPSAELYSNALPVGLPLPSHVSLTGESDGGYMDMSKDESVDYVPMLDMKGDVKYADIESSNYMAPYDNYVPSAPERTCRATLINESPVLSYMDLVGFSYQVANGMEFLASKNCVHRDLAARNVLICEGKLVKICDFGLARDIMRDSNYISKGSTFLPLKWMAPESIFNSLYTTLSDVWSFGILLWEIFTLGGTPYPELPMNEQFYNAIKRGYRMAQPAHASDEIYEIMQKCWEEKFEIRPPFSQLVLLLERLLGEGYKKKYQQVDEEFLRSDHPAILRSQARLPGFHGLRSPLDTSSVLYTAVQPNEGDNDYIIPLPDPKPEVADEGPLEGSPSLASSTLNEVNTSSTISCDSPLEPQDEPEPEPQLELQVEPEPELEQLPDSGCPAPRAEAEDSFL

SMILES	inhibition at 0.1 µM [%]
CCN(CC)CCNC(=O)c1c(C)[nH]c2c1CCC/C2=C1/C(=O)Nc2ccc(C)cc21 [I-4, N-(2-(diethylamino)ethyl)-2-methyl-7-[1,2-dihydro-5-methyl-2-oxo-3H-indol-(Z)-3-ylidene]-4,5,6,7-tetrahydro-1H-indole-3-carboxamide]	86
Cc1[nH]c2c(c1C(=O)NCCN(C)C)CCC/C2=C1/C(=O)Nc2ccc(F)cc21 [I-6, N-(2-(dimethylamino)ethyl)-2-methyl-7-[1,2-dihydro-5-fluoro-2-oxo-3H-indol-(Z)-3-ylidene]-4,5,6,7-tetrahydro-1H-indole-3-carboxamide]	85
CCN(CC)CCNC(=O)c1c(C)[nH]c2c1CCC/C2=C1/C(=O)Nc2ccc(Cl)cc21 [I-3, N-(2-(diethylamino)ethyl)-2-methyl-7-[1,2-dihydro-5-chloro-2-oxo-3H-indol-(Z)-3-ylidene]-4,5,6,7-tetrahydro-1H-indole-3-carboxamide]	88
Cc1[nH]c2c(c1C(=O)NCCCN(C)C)CCC/C2=C1/C(=O)Nc2ccc(Cl)cc21 [I-7, N-(3-(dimethylamino)propyl)-2-methyl-7-[1,2-dihydro-5-chloro-2-oxo-3H-indol-(Z)-3-ylidene]-4,5,6,7-tetrahydro-1H-indole-3-carboxamide]	86

Second part, the compound after the results:

inhibition at 0.1 µM [%]	SMILES
89	Cc1[nH]c2c(c1C(=O)NCCO)CCC/C2=C1/C(=O)Nc2ccccc21 [I-8, N-(2-hydroxyethyl)-2-methyl-7-[1,2-dihydro-2-oxo-3H-indol-(Z)-3-ylidene]-4,5,6,7-tetrahydro-1H-indole-3-carboxamide]
90	CCN(CC)CCNC(=O)c1c(C)[nH]c2c1CCC/C2=C1/C(=O)Nc2ccc(F)cc21 [I-2, N-(2-(diethylamino)ethyl)-2-methyl-7-[1,2-dihydro-5-fluoro-2-oxo-3H-indol-(Z)-3-ylidene]-4,5,6,7-tetrahydro-1H-indole-3-carboxamide]
87	CCN(CC)CC(O)CNC(=O)c1c(C)[nH]c2c1CCC/C2=C1/C(=O)Nc2ccccc21 (stereo not drawn) [I-63, N-(3-(diethylamino)-2-hydroxypropyl)-2-methyl-7-[1,2-dihydro-2-oxo-3H-indol-(Z)-3-ylidene]-4,5,6,7-tetrahydro-1H-indole-3-carboxamide]
85	Cc1[nH]c2c(c1C(=O)NCC(O)CN1CCCC1)CCC/C2=C1/C(=O)Nc2ccccc21 (stereo not drawn) [I-70, N-(2-hydroxy-3-(pyrrolidin-1-yl)propyl)-2-methyl-7-[1,2-dihydro-2-oxo-3H-indol-(Z)-3-ylidene]-4,5,6,7-tetrahydro-1H-indole-3-carboxamide]
87	CCN(CC)CCNC(=O)c1c(C)[nH]c2c1CCC/C2=C1/C(=O)Nc2ccccc21 [I-5, N-(2-(diethylamino)ethyl)-2-methyl-7-[1,2-dihydro-2-oxo-3H-indol-(Z)-3-ylidene]-4,5,6,7-tetrahydro-1H-indole-3-carboxamide]
